Data: patent publication US20240180876A1, “COMPOSITION FOR INCREASING RED BLOOD CELLS AND/OR HEMOGLOBIN” (SUNTORY HOLDINGS LIMITED, priority 2021, published 2024)

Columns and labels:
[1] = mice orally administered, versus mice not administered; cited from earlier work
[2] = placebo-controlled, randomized, double-blind, parallel-group human study of red blood cell count, hemoglobin concentration and blood taurine level; assay type: in vivo; details: male and female adults, one capsule with 20 mg L-ergothioneine per day for four weeks, pre-testing to week 4, versus control food group
Experimental: In order to evaluate the influence of supplements containing ergothioneine on the red blood cell count in the blood, blood hemoglobin concentration, and blood taurine level, a placebo-controlled, randomized, double-blind, parallel-group study was conducted on subjects including male and female adults (46 subjects in a test food group; 46 subjects in a control food group; 92 subjects in total). In this study, one capsule containing 20 mg ergothioneine (test food) or one capsule not containing ergothioneine (control food) was fed per day for four weeks. The red blood cell count in the blood, blood hemoglobin concentration, and blood taurine level of each subject were measured for pre-testing before starting the study (before starting ingestion of the test food or control food). After ingestion of the test food or control food for four weeks, the red blood cell count in the blood, blood hemoglobin concentration, and blood taurine level of each subject were measured again (testing on week 4). The red blood cell count in the blood and blood hemoglobin concentration were measured by known methods. […] Specifically, the amount of change in the test food group at the time of testing on week 4 was determined by subtracting the measurements (average) of the test food group at the time of pre-testing from the measurements (average) of the test food group at the time of testing on week 4. Similarly, the amount of change in the control food group at the time of testing on week 4 was determined by subtracting the measurements (average) at the time of pre-testing from the measurements (average) at the time of testing on week 4. […]

Compound: C[N+](C)(C)[C@@H](Cc1c[nH]c(=S)[nH]1)C(=O)[O-] [L-ergothioneine]
- peritesticular fat weight [1]: lower
- triglyceride (neutral fat) level in plasma [1]: lower
- change in blood hemoglobin concentration [2]: significantly increased
- change in blood taurine level (CE-TOF-MS) [2]: significantly increased
- change in red blood cell count in the blood [2]: significantly increased
